Legend:
SUDHL6 = assay: Compound 1 with dexamethasone, CellTiter-Glo viability 72 h, combination index; format: cell-based; conditions: SUDHL6
Procedure: The effects of Compound 1 with dexamethasone were examined in a panel of cell lines. Cells were cultured and assayed as follows. Compound 1 was serially diluted with cell culture medium and various DMSO concentrations. The top concentration of Compound 1 exposed to cells was 3 uM for cell lines other than WSU-NHL and DOHH2. For WSU-NHL and DOHH2 cell lines, the top concentration of Compound 1 exposed to the cells was 0.3 uM. Dexamethasone was serially diluted in culture media and phosphate buffered saline (PBS). The top concentration of dexamethasone used on cells was 3 uM. Cells were at least 73% viable and were counted and diluted for plating at a density of about 92,000 cell/mL, 130 uL cells per well in 96 well plates for SUDHL6, Karpas 422, SUDHL4, WSU-NHL, RL, and DOHH2 cell lines. The SUDHL10 cell line was plated at a density of about 46,000 cells/mL, 130 uL cells per well in 96 well plates.
Various concentrations of Compound 1 and various combinations of dexamethasone were added to various wells of cells. Single agents (Compound 1 or dexamethasone alone) were also added to some wells of cells. Cells were incubated with compounds for 72 hours. To assay for effects of the compounds on cell viability, a CellTiter-Glo® luminescent cell viability assay (commercially available) was used. To each plate of cells, 100 uL CellTiter-Glo reagent was added, incubated, and luminescence quantified using a […].
The result for cell line SUDHL6 is depicted in FIG. 12 and in Table 12. […] Table 12 depicts combination index (CI) values for different combinations of dexamethasone/Compound 1 concentrations.

RL = assay: Combination study, ATPLite 72 h, dose matrix (Synergy Score, CI50)
KARPAS-422 = assay: as above
DOHH-2 = assay: as above

Structure (SMILES): C[C@H](Nc1ncnc2[nH]cnc12)c1cc2cccc(Cl)c2c(=O)n1-c1ccccc1 [Compound 1, (S)-3-(1-((9H-purin-6-yl)amino)ethyl)-8-chloro-2-phenylisoquinolin-1(2H)-one]
- combination index (CI) (SUDHL6; Compound 1 111.1 nM + Dexamethasone 1.4 nM): E (E = >1)
- combination index (CI) (SUDHL6; Compound 1 111.1 nM + Dexamethasone 4.1 nM): E (E = >1)
- combination index (CI) (SUDHL6; Compound 1 111.1 nM + Dexamethasone 12.3 nM): E (E = >1)
- combination index (CI) (SUDHL6; Compound 1 111.1 nM + Dexamethasone 37 nM): E (E = >1)
- combination index (CI) (SUDHL6; Compound 1 111.1 nM + Dexamethasone 111.1 nM): A (A = 0.0001 to <0.3)
- combination index (CI) (SUDHL6; Compound 1 111.1 nM + Dexamethasone 333.3 nM): A (A = 0.0001 to <0.3)
- combination index (CI) (SUDHL6; Compound 1 111.1 nM + Dexamethasone 1000 nM): A (A = 0.0001 to <0.3)
- combination index (CI) (SUDHL6; Compound 1 111.1 nM + Dexamethasone 3000 nM): A (A = 0.0001 to <0.3)
- combination index (CI) (SUDHL6; Compound 1 333.3 nM + Dexamethasone 1.4 nM): E (E = >1)
- combination index (CI) (SUDHL6; Compound 1 333.3 nM + Dexamethasone 4.1 nM): E (E = >1)
- combination index (CI) (SUDHL6; Compound 1 333.3 nM + Dexamethasone 12.3 nM): E (E = >1)
- combination index (CI) (SUDHL6; Compound 1 333.3 nM + Dexamethasone 37 nM): E (E = >1)
- combination index (CI) (SUDHL6; Compound 1 333.3 nM + Dexamethasone 111.1 nM): A (A = 0.0001 to <0.3)
- combination index (CI) (SUDHL6; Compound 1 333.3 nM + Dexamethasone 333.3 nM): A (A = 0.0001 to <0.3)
- combination index (CI) (SUDHL6; Compound 1 333.3 nM + Dexamethasone 1000 nM): A (A = 0.0001 to <0.3)
- combination index (CI) (SUDHL6; Compound 1 333.3 nM + Dexamethasone 3000 nM): A (A = 0.0001 to <0.3)
- combination index (CI) (SUDHL6; Compound 1 1000 nM + Dexamethasone 1.4 nM): E (E = >1)
- combination index (CI) (SUDHL6; Compound 1 1000 nM + Dexamethasone 4.1 nM): B (B = 0.3 to <0.5)
- combination index (CI) (SUDHL6; Compound 1 1000 nM + Dexamethasone 12.3 nM): E (E = >1)
- combination index (CI) (SUDHL6; Compound 1 1000 nM + Dexamethasone 37 nM): E (E = >1)
- combination index (CI) (SUDHL6; Compound 1 1000 nM + Dexamethasone 111.1 nM): A (A = 0.0001 to <0.3)
- combination index (CI) (SUDHL6; Compound 1 1000 nM + Dexamethasone 333.3 nM): A (A = 0.0001 to <0.3)
- combination index (CI) (SUDHL6; Compound 1 1000 nM + Dexamethasone 1000 nM): A (A = 0.0001 to <0.3)
- combination index (CI) (SUDHL6; Compound 1 1000 nM + Dexamethasone 3000 nM): A (A = 0.0001 to <0.3)
- combination index (CI) (SUDHL6; Compound 1 3000 nM + Dexamethasone 1.4 nM): A (A = 0.0001 to <0.3)
- combination index (CI) (SUDHL6; Compound 1 3000 nM + Dexamethasone 4.1 nM): A (A = 0.0001 to <0.3)
- combination index (CI) (SUDHL6; Compound 1 3000 nM + Dexamethasone 12.3 nM): A (A = 0.0001 to <0.3)
- combination index (CI) (SUDHL6; Compound 1 3000 nM + Dexamethasone 37 nM): A (A = 0.0001 to <0.3)
- combination index (CI) (SUDHL6; Compound 1 3000 nM + Dexamethasone 111.1 nM): A (A = 0.0001 to <0.3)
- combination index (CI) (SUDHL6; Compound 1 3000 nM + Dexamethasone 333.3 nM): A (A = 0.0001 to <0.3)
- combination index (CI) (SUDHL6; Compound 1 3000 nM + Dexamethasone 1000 nM): A (A = 0.0001 to <0.3)
- combination index (CI) (SUDHL6; Compound 1 3000 nM + Dexamethasone 3000 nM): A (A = 0.0001 to <0.3)
- CI50 growth inhibition (RL; combination with Dexamethasone): T (T=0.5 to <0.7)
- CI50 inhibition (RL; combination with Dexamethasone): T (T=0.5 to <0.7)
- Synergy Score growth inhibition (RL; combination with Dexamethasone): A3 (A3=>3)
- Synergy Score inhibition (RL; combination with Dexamethasone): A3 (A3=>3)
- CI50 growth inhibition (RL; combination with LEE011): T (T=0.5 to <0.7)
- CI50 inhibition (RL; combination with LEE011): U (U=0.7 to <1)
- Synergy Score growth inhibition (RL; combination with LEE011): A2 (A2=1 to <3)
- Synergy Score inhibition (RL; combination with LEE011): A1 (A1=0.0001 to <1)
- CI50 growth inhibition (RL; combination with PCI-32765): S (S=0.01 to <0.5)
- CI50 inhibition (RL; combination with PCI-32765): S (S=0.01 to <0.5)
- Synergy Score growth inhibition (RL; combination with PCI-32765): A2 (A2=1 to <3)
- Synergy Score inhibition (RL; combination with PCI-32765): A2 (A2=1 to <3)
- CI50 growth inhibition (RL; combination with PD-0332991): S (S=0.01 to <0.5)
- CI50 inhibition (RL; combination with PD-0332991): S (S=0.01 to <0.5)
- Synergy Score growth inhibition (RL; combination with PD-0332991): A2 (A2=1 to <3)
- Synergy Score inhibition (RL; combination with PD-0332991): A2 (A2=1 to <3)
- CI50 growth inhibition (KARPAS-422; combination with Dexamethasone): U (U=0.7 to <1)
- CI50 inhibition (KARPAS-422; combination with Dexamethasone): T (T=0.5 to <0.7)
- Synergy Score growth inhibition (KARPAS-422; combination with Dexamethasone): A3 (A3=>3)
- Synergy Score inhibition (KARPAS-422; combination with Dexamethasone): A2 (A2=1 to <3)
- CI50 growth inhibition (KARPAS-422; combination with LEE011): S (S=0.01 to <0.5)
- CI50 inhibition (KARPAS-422; combination with LEE011): S (S=0.01 to <0.5)
- Synergy Score growth inhibition (KARPAS-422; combination with LEE011): A2 (A2=1 to <3)
- Synergy Score inhibition (KARPAS-422; combination with LEE011): A2 (A2=1 to <3)
- CI50 growth inhibition (KARPAS-422; combination with PCI-32765): S (S=0.01 to <0.5)
- CI50 inhibition (KARPAS-422; combination with PCI-32765): S (S=0.01 to <0.5)
- Synergy Score growth inhibition (KARPAS-422; combination with PCI-32765): A3 (A3=>3)
- Synergy Score inhibition (KARPAS-422; combination with PCI-32765): A2 (A2=1 to <3)
- CI50 growth inhibition (KARPAS-422; combination with PD-0332991): S (S=0.01 to <0.5)
- CI50 inhibition (KARPAS-422; combination with PD-0332991): S (S=0.01 to <0.5)
- Synergy Score growth inhibition (KARPAS-422; combination with PD-0332991): A2 (A2=1 to <3)
- Synergy Score inhibition (KARPAS-422; combination with PD-0332991): A2 (A2=1 to <3)
- CI50 growth inhibition (DOHH-2; combination with Dexamethasone): S (S=0.01 to <0.5)
- CI50 inhibition (DOHH-2; combination with Dexamethasone): S (S=0.01 to <0.5)
- Synergy Score growth inhibition (DOHH-2; combination with Dexamethasone): A3 (A3=>3)
- Synergy Score inhibition (DOHH-2; combination with Dexamethasone): A3 (A3=>3)
- CI50 growth inhibition (DOHH-2; combination with LEE011): T (T=0.5 to <0.7)
- CI50 inhibition (DOHH-2; combination with LEE011): U (U=0.7 to <1)
- Synergy Score growth inhibition (DOHH-2; combination with LEE011): A3 (A3=>3)
- Synergy Score inhibition (DOHH-2; combination with LEE011): A2 (A2=1 to <3)
- CI50 growth inhibition (DOHH-2; combination with PCI-32765): S (S=0.01 to <0.5)
- CI50 inhibition (DOHH-2; combination with PCI-32765): S (S=0.01 to <0.5)
- Synergy Score growth inhibition (DOHH-2; combination with PCI-32765): A3 (A3=>3)
- Synergy Score inhibition (DOHH-2; combination with PCI-32765): A3 (A3=>3)
- CI50 growth inhibition (DOHH-2; combination with PD-0332991): U (U=0.7 to <1)
- CI50 inhibition (DOHH-2; combination with PD-0332991): U (U=0.7 to <1)
- Synergy Score growth inhibition (DOHH-2; combination with PD-0332991): A3 (A3=>3)
- Synergy Score inhibition (DOHH-2; combination with PD-0332991): A2 (A2=1 to <3)

Reference: patent US20240325398A1, “COMBINATION THERAPIES” (Infinity Pharmaceuticals, Inc., priority 2014, published 2024)
